In US4690945A, “Process for the preparation of 5'-substituted 2-(3'-thienyl)propionic acids” (Laboratorios Madaus Cerafarm, S.A., priority 1981, dated 1987):
Entries after “also recorded” stand apart in the source; their conditions may differ.

What was measured:
[1] = overall pharmacological (anti-inflammatory and analgesic) action, tests on rats and mice; type: in vivo; settings: for anti-inflammatory activity (in words): in mammals; for pharmacological action (in words): analgesic and anti-inflammatory
Procedure: (§1) The pharmacological tests were performed on rats and mice, using the carrageenin edema procedure on rats' legs and backs by the test for anti-inflammatory action and the acetic acid contorsion and hot plate tests on mice for the purpose of testing analgesic action.
(§2) In the anti-inflammatory action test, the test was performed on rat leg edema induced by carrageenin, administering the compounds per os and measuring the volume of the edema 3 hours later by plethysmography.
(§3) The anti-inflammatory action of these compounds was also examined by the carrageenin abscess test on rats' backs, the abscess being weighed 24 hours after administration of the product.
(§4) For the examination of analgesic action, the acetic acid and hot plate tests were used.
(§5) In the acetic acid test, the number of contorsions (stretching) is determined, which are produced for 30 minutes following intraperitoneal administration of dilute acetic acid. Analgesic action is also tested by the hot plate test in which the pain stimulus is thermal, the time being measured in seconds which the animal takes to respond to the stimulus by licking its feet.

[2] = test system: rat leg edema induced by carrageenin; experiment: carrageenin edema procedure on rats' legs (Δ volume), anti-inflammatory action; type: in vivo; parameters: key to Anti-inflammatory action, Δ volume: +++: Intense action; ++: Medium action; +: Minimal action; ±: Doubtful action; -: Negative action; --: Not tested; settings: per os, 3 hours; for Anti-inflammatory action, Δ volume: class symbol; for ED50: po
Procedure: as §1, §2
(§6) The results obtained in both tests are expressed as a percentage of inhibition of the edema or abscess, and were better than 30% in comparison with a control group.

[3] = test system: carrageenin abscess on rats' backs; experiment: carrageenin abscess test on rats' backs (Δ abscess), anti-inflammatory action; type: in vivo; parameters: key to Anti-inflammatory action, Δ abscess: +++: Intense action; ++: Medium action; +: Minimal action; ±: Doubtful action; -: Negative action; --: Not tested; settings: rat back carrageenin abscess, weighed 24 hours after administration; for Anti-inflammatory action, Δ abscess: class symbol
Procedure: as §1, §3, §6

[4] = test system: contorsions (stretching) induced by intraperitoneal dilute acetic acid; experiment: acetic acid contorsion test on mice, analgesic action; type: in vivo; parameters: key to Analgesic action, Acetic acid: +++: Intense action; ++: Medium action; +: Minimal action; ±: Doubtful action; -: Negative action; --: Not tested; settings: for ED50: Mus musculus, ip, 0.5 h; for ED50 / Analgesic action, Acetic acid: mice, contorsions during 30 minutes after i.p. acetic acid; for analgesic action (in words): acetic acid and hot plate tests; for Analgesic action, Acetic acid: class symbol
Procedure: as §5, with “The pharmacological tests were performed on rats and mice, using the carrageenin edema procedure on rats' legs and backs by the test for anti-inflammatory action and the acetic acid contorsion and hot plate tests on mice for the purpose of testing analgesic action. For the examination of analgesic action, the acetic acid and hot plate tests were used. […] In” for “In”

[5] = acute toxicity (DL50 / LD50); settings: mouse, in vivo
Text: Most of the compounds described in these examples have been tested pharmacologically and toxicologically (DL50) according to the methods indicated on pages 5 to 7, and the results are summarized in the appended table.

[6] = test system: thermal pain stimulus (hot plate); experiment: hot plate test on mice, analgesic action; type: in vivo; parameters: key: +++: Intense action; ++: Medium action; +: Minimal action; ±: Doubtful action; -: Negative action; --: Not tested; settings: class symbol
Procedure: as §1, §4, §5

| SMILES | anti-inflammatory activity (in words) [1] | Anti-inflammatory action, Δ volume [2] | ED50 [2] [mg/kg] | ED50 [3] [mg/kg] | Anti-inflammatory action, Δ abscess [3] | ED50 [4] [mg/kg] | analgesic action (in words) [4] | Analgesic action, Acetic acid [4] | LD50 [5] [mg/kg] | pharmacological action (in words) [1] | anti-inflammatory activity (in words) ([1]; listed as I) | anti-inflammatory activity (in words) ([1]; listed as II) | Analgesic action, Plate [6] |
| --- | --- | --- | --- | --- | --- | --- | --- | --- | --- | --- | --- | --- | --- |
| CC(C(=O)O)c1csc(C(=O)c2ccccc2)c1 (stereo not shown) [A] | potent anti-inflammatory activity |  |  |  |  |  |  |  |  |  |  |  |  |
| CC(C(=O)O)c1csc(C(=O)c2ccc(Cl)cc2)c1 (stereo not shown) [B] | potent anti-inflammatory activity |  |  |  |  |  |  |  |  |  |  |  |  |
| CC(C(=O)O)c1csc(C(=O)c2ccccc2)c1 (stereo not shown) [LMC-I, 2-(5'-benzoyl-3'-thienyl)propionic acid] |  | +++ | 7.3 | 12.5 | +++ | 50 | have an analgesic action | +++ | ~400 | notable analgesic and anti-inflammatory action; also recorded: most active compounds | anti-inflammatory activity in mammals |  |  |
| CC(C(=O)O)c1csc(C(=O)c2ccc(Cl)cc2)c1 (stereo not shown) [LMC-II, 2-(5'-(4"-chloro)benzoyl-3'-thienyl)propionic acid] |  | +++ | 17.3 | 23.5 | +++ | 69.6 | have an analgesic action | +++ | ~1200 | notable pharmacological action, though it is inferior to that of compound I; also recorded: most active compounds |  | anti-inflammatory activity in mammals |  |
| CC(C(=O)O)c1csc(C(=O)c2ccc(Cl)cc2Cl)c1 (stereo not shown) [LMC-III, 2-(5'-(2",4"-dichloro)benzoyl-3'-thienyl)propionic acid] |  | ± |  |  | + |  |  | + | ~1000 |  |  |  | + |
| Cc1ccc(C(=O)c2cc(C(C)C(=O)O)cs2)cc1 (stereo not shown) [LMC-IV] |  | +++ |  |  | ++ |  |  | ++ | ~1200 | best representative of this action |  |  | ++ |
| CC(C)C(=O)c1cc(C(C)C(=O)O)cs1 (stereo not shown) [LMC-V, 2-(5'-isobutyryl-3'-thienyl)propionic acid] |  | ++ |  |  | + |  |  |  | ~1500 |  |  |  | + |
| CC(C(=O)O)c1csc(Cc2ccccc2)c1 (stereo not shown) [LMC-VII, 2-(5'-benzyl-3'-thienyl)propionic acid] |  | + |  |  |  |  |  |  | ~1500 |  |  |  |  |
| CC(C)Cc1cc(C(C)C(=O)O)cs1 (stereo not shown) [LMC-VI] |  | + |  |  | + |  |  |  | > 1000 |  |  |  | + |
